In patent US20090143279A1 (priority 2007, published 2009):
Read-outs that look alike come from different tables or passages of the source.

Legend:
[1] = system: mitochondrial membrane potential; format: cell-based, mouse; details: for ΔΨm (composite Z-score): normalized score vs mock-treated (DMSO) wells
OXPHOS gene expression = format: cell-based, mouse; details: for GE-HTS (composite Z-score): normalized score vs mock-treated (DMSO) wells
nuOXPHOS transcripts = format: cell-based, mouse; details: for nucOX (composite Z-score): normalized score vs mock-treated (DMSO) wells
C2C12 myotubes = details: for Viability (composite Z-score): normalized score vs mock-treated (DMSO) wells
[2] = system: cellular dehydrogenase activity; details: for MTT (composite Z-score): normalized score vs mock-treated (DMSO) wells
cytochrome c = format: cell-based, mouse; details: for cyt c (composite Z-score): normalized score vs mock-treated (DMSO) wells
reactive oxygen species = format: cell-based, mouse; details: for ROS (composite Z-score): normalized score vs mock-treated (DMSO) wells
mtOXPHOS transcripts = format: cell-based, mouse; details: for mitoOX (composite Z-score): normalized score vs mock-treated (DMSO) wells
[3] = composite Z-score vs DMSO wells, Conc 20 μM
[4] = Table 4, C2C12 myotubes, 48 h, JC-1, composite Z-score
[5] = Table 4, C2C12 myotubes, 48 h, composite Z-score
[6] = composite Z-score vs mock-treated (DMSO) wells, Conc 20 μM
[7] = composite Z-score vs DMSO, Conc 20 μM
[8] = normalized composite Z-score vs mock-treated (DMSO) wells, Conc 20 μM
[9] = 20 μM, composite Z-score vs DMSO

SMILES: C#CC1(O)CC[C@H]2[C@@H]3CCC4=CC(=O)CC[C@@H]4[C@H]3CC[C@@]21CC (mixture of isomers) [norgestrel]
- ΔΨm [1, 3]: −0.965
- GE-HTS (OXPHOS gene expression; [3]): −0.225
- nucOX (nuOXPHOS transcripts; [3]): −0.183
- Viability (C2C12 myotubes; [3]): −0.966
- MTT [2, 3]: −0.761
- cyt c (cytochrome c; [3]): −0.027
- ROS (reactive oxygen species; [3]): 0.831
- mitoOX (mtOXPHOS transcripts; [3]): −0.187

SMILES: C=CC(C)(O)CCC=C(C)C (single isomer, unassigned; (+)) [(+)-linalool]
- ΔΨm (composite Z-score) ([1]; Conc 20 μM): −0.810
- GE-HTS (composite Z-score) (OXPHOS gene expression; Conc 20 μM): −0.007
- nucOX (composite Z-score) (nuOXPHOS transcripts; Conc 20 μM): 0.131
- Viability (composite Z-score) (C2C12 myotubes; Conc 20 μM): −0.653
- MTT (composite Z-score) ([2]; Conc 20 μM): −1.338
- cyt c (composite Z-score) (cytochrome c; Conc 20 μM): 0.690
- ROS (composite Z-score) (reactive oxygen species; Conc 20 μM): 0.481
- mitoOX (composite Z-score) (mtOXPHOS transcripts; Conc 20 μM): −0.342

SMILES: O=C1c2ccc(O)cc2OC(c2cc(O)c(O)c(O)c2)C1O (stereo in doubt) [dihydrorobinetin, reference compound]
- ΔΨm (composite Z-score) ([1]; Conc 20 μM): −3.396
- ΔΨm [1, 4]: −3.396
- GE-HTS (composite Z-score) (OXPHOS gene expression; Conc 20 μM): −1.192
- nucOX (composite Z-score) (nuOXPHOS transcripts; Conc 20 μM): −1.089
- Viability (composite Z-score) (C2C12 myotubes; Conc 20 μM): −1.070
- Viability (C2C12 myotubes; [5]): −1.070
- MTT (composite Z-score) ([2]; Conc 20 μM): −1.259
- MTT [2, 5]: −1.259
- cyt c (composite Z-score) (cytochrome c; Conc 20 μM): 0.082
- ROS (composite Z-score) (reactive oxygen species; Conc 20 μM): −0.393
- ROS (reactive oxygen species; [5]): −0.393
- mitoOX (composite Z-score) (mtOXPHOS transcripts; Conc 20 μM): −1.124

SMILES: C[C@H](C[C@@H](O)[C@@H]1OC1(C)C)[C@@H]1CC[C@]2(C)C3=CC[C@H]4C(C)(C)C(=O)CC[C@]4(C)[C@H]3CC[C@@]12C (stereo in doubt) [niloticin]
- ΔΨm [1, 6]: 0.461
- GE-HTS (OXPHOS gene expression; [6]): 0.543
- nucOX (nuOXPHOS transcripts; [6]): 0.648
- Viability (C2C12 myotubes; [6]): 1.304
- MTT [2, 6]: −0.481
- cyt c (cytochrome c; [6]): 0.136
- ROS (reactive oxygen species; [6]): 0.817
- mitoOX (mtOXPHOS transcripts; [6]): 0.151

SMILES: CC[C@@H](C)C(=O)O[C@H]1[C@H](O)[C@H]2[C@@H](CN3C[C@@H](C)CC[C@H]3[C@@]2(C)O)[C@@H]2C[C@]34O[C@]5(O)[C@@H](OC(=O)[C@](C)(O)[C@@H](C)O)CC[C@@]3(C)[C@@H]5[C@@H](OC(C)=O)[C@@H](OC(C)=O)[C@H]4[C@@]21O (stereo in doubt) [protoveratrine B]
- ΔΨm [1, 7]: 0.942
- GE-HTS (OXPHOS gene expression; [7]): 0.018
- nucOX (nuOXPHOS transcripts; [7]): 0.058
- Viability (C2C12 myotubes; [7]): 0.708
- MTT [2, 7]: 0.904
- cyt c (cytochrome c; [7]): −1.085
- ROS (reactive oxygen species; [7]): 0.244
- mitoOX (mtOXPHOS transcripts; [7]): −0.096

SMILES: CC(=O)O[C@@H]1CC2C(C)(C)C(=O)[C@@H]3O[C@@H]3[C@]2(C)C2CC[C@]3(C)C(=CC(=O)O[C@H]3c3ccoc3)[C@@]21C (stereo partly drawn) [1 (2)alpha-epoxydeoxydihydrogedunin]
- ΔΨm [1, 8]: 0.074
- GE-HTS (OXPHOS gene expression; [8]): −0.801
- nucOX (nuOXPHOS transcripts; [8]): −0.831
- Viability (C2C12 myotubes; [8]): 0.015
- MTT [2, 8]: −1.048
- cyt c (cytochrome c; [8]): 0.022
- ROS (reactive oxygen species; [8]): 2.784
- mitoOX (mtOXPHOS transcripts; [8]): −0.539

SMILES: CC1(C)C2CC(=O)[C@]3(C)C(CC[C@@]4(C)[C@H](c5ccoc5)OC(=O)C5OC543)[C@@]2(C)[C@@H](O)C[C@H]1O (stereo partly shown) [1,3-dideacetyl-7-deacetoxy-7-oxokhivorin]
- ΔΨm [1, 8]: 1.329
- GE-HTS (OXPHOS gene expression; [8]): −0.665
- nucOX (nuOXPHOS transcripts; [8]): −0.716
- Viability (C2C12 myotubes; [8]): 0.190
- MTT [2, 8]: −1.399
- cyt c (cytochrome c; [8]): 0.226
- ROS (reactive oxygen species; [8]): 1.267
- mitoOX (mtOXPHOS transcripts; [8]): −0.497

SMILES: CC(=O)O[C@@H]1C[C@H]2C(C)(C)[C@H](O)C[C@H](O)[C@]2(C)[C@H]2CC[C@@]3(C)[C@H](c4ccoc4)OC(=O)[C@H]4O[C@]43[C@@]21C [1,3-dideacetylkhivorin]
- ΔΨm [1, 7]: 0.051
- GE-HTS (OXPHOS gene expression; [7]): −0.693
- nucOX (nuOXPHOS transcripts; [7]): −0.349
- Viability (C2C12 myotubes; [7]): 0.507
- MTT [2, 7]: −0.622
- cyt c (cytochrome c; [7]): 0.887
- ROS (reactive oxygen species; [7]): 0.963
- mitoOX (mtOXPHOS transcripts; [7]): −1.275

SMILES: Cc1cc(O)c2c(c1O)C(=O)c1c(O)cc(C)c(O)c1C2=O [1,4,5,8-tetrahydroxy-2,6-dimethylanthroquinone, reference compound]
- ΔΨm [1, 4]: −0.662
- ΔΨm [1, 7]: −0.662
- GE-HTS (OXPHOS gene expression; [7]): −1.123
- nucOX (nuOXPHOS transcripts; [7]): −1.178
- Viability (C2C12 myotubes; [5]): −0.853
- Viability (C2C12 myotubes; [7]): −0.853
- MTT [2, 5]: −0.344
- MTT [2, 7]: −0.344
- cyt c (cytochrome c; [7]): 0.005
- ROS (reactive oxygen species; [5]): 0.772
- ROS (reactive oxygen species; [7]): 0.772
- mitoOX (mtOXPHOS transcripts; [7]): −0.739

SMILES: CC(=O)O[C@@H]1CC(=O)[C@@]2(C)C(CC(=O)[C@]3(C)C2CC[C@@]2(C)[C@H](c4ccoc4)OC(=O)C4OC423)C1(C)C (stereo partly shown) [1,7-dideacetoxy-1,7-dioxokhivorin]
- ΔΨm [1, 6]: −0.535
- GE-HTS (OXPHOS gene expression; [6]): −0.558
- nucOX (nuOXPHOS transcripts; [6]): −0.585
- Viability (C2C12 myotubes; [6]): 0.042
- MTT [2, 6]: −0.142
- cyt c (cytochrome c; [6]): 0.539
- ROS (reactive oxygen species; [6]): 0.352
- mitoOX (mtOXPHOS transcripts; [6]): −0.355

SMILES: CC1(C)C2C[C@@H](O)[C@]3(C)C(CC[C@@]4(C)[C@H](c5ccoc5)OC(=O)C5OC543)[C@@]2(C)C(=O)C[C@H]1O (stereo partly shown) [1-deacetoxy-1-oxo-3,7-dideacetylkhivorin]
- ΔΨm (composite Z-score) ([1]; Conc 20 μM): −0.321
- GE-HTS (composite Z-score) (OXPHOS gene expression; Conc 20 μM): −0.525
- nucOX (composite Z-score) (nuOXPHOS transcripts; Conc 20 μM): −0.704
- Viability (composite Z-score) (C2C12 myotubes; Conc 20 μM): −0.413
- MTT (composite Z-score) ([2]; Conc 20 μM): −1.776
- cyt c (composite Z-score) (cytochrome c; Conc 20 μM): −0.411
- ROS (composite Z-score) (reactive oxygen species; Conc 20 μM): 0.626
- mitoOX (composite Z-score) (mtOXPHOS transcripts; Conc 20 μM): −0.020

SMILES: CC1(C)[C@H]2CC[C@@]1(C)C(=O)C2 [1r-camphor]
- ΔΨm [1, 9]: −0.794
- GE-HTS (OXPHOS gene expression; [9]): 0.073
- nucOX (nuOXPHOS transcripts; [9]): 0.107
- Viability (C2C12 myotubes; [9]): −0.744
- MTT [2, 9]: −0.402
- cyt c (cytochrome c; [9]): 0.372
- ROS (reactive oxygen species; [9]): 0.042
- mitoOX (mtOXPHOS transcripts; [9]): 0.023

SMILES: COc1ccc2c(c1OC)C(=O)O[C@@H]2[C@H]1c2cc3c(cc2CCN1C)OCO3 [1s,9r-hydrastine]
- ΔΨm [1]: −0.849
- GE-HTS (OXPHOS gene expression; [7]): −0.152
- nucOX (nuOXPHOS transcripts; [7]): −0.041
- Viability (C2C12 myotubes; [7]): 0.650
- MTT [2, 7]: −0.539
- cyt c (cytochrome c; [7]): 0.359
- ROS (reactive oxygen species; [7]): −0.029
- mitoOX (mtOXPHOS transcripts; [7]): −0.341
